# Source: PubChem BioAssay (NCI)
#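 Five concentrations, 48 hours, 96-well plates. TGI denotes the concentration required for complete inhibition of growth.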
# Columns and labels:
# Assay in all cases: growth of human tumour cells (NCI), 48 h
# 786-0 renal = system: 786-0 renal
# A498 renal = system: A498 renal
# A549 NSCLC = system: A549 NSCLC
# ACHN renal = system: ACHN renal
# BT-549 breast = system: BT-549 breast
# CAKI-1 renal = system: CAKI-1 renal
# CCRF-CEM leukemia = system: CCRF-CEM leukemia
# COLO 205 colon = system: COLO 205 colon
# DLD-1 colon = system: DLD-1 colon
# DMS 114 small cell lung = system: DMS 114 small cell lung
# DMS 273 small cell lung = system: DMS 273 small cell lung
# DU-145 prostate = system: DU-145 prostate
# EKVX NSCLC = system: EKVX NSCLC
# HCC-2998 colon = system: HCC-2998 colon
# HCT-116 colon = system: HCT-116 colon
# HCT-15 colon = system: HCT-15 colon
# HL-60(TB) leukemia = system: HL-60(TB) leukemia
# HOP-18 NSCLC = system: HOP-18 NSCLC
# HOP-62 NSCLC = system: HOP-62 NSCLC
# HOP-92 NSCLC = system: HOP-92 NSCLC
# HS 578T breast = system: HS 578T breast
# HT29 colon = system: HT29 colon
# IGROV1 ovarian = system: IGROV1 ovarian
# K-562 leukemia = system: K-562 leukemia
# KM12 colon = system: KM12 colon
# LOX IMVI melanoma = system: LOX IMVI melanoma
# LXFL 529 NSCLC = system: LXFL 529 NSCLC
# M14 melanoma = system: M14 melanoma
# M19-MEL melanoma = system: M19-MEL melanoma
# MALME-3M melanoma = system: MALME-3M melanoma
# MCF7 breast = system: MCF7 breast
# MDA-MB-231 breast = system: MDA-MB-231 breast
# MDA-MB-435 = system: MDA-MB-435
# MOLT-4 leukemia = system: MOLT-4 leukemia
# NCI-H226 lung = system: NCI-H226 lung
# NCI-H23 lung = system: NCI-H23 lung
# NCI-H460 lung = system: NCI-H460 lung
# NCI-H522 lung = system: NCI-H522 lung
# OVCAR-3 ovarian = system: OVCAR-3 ovarian
# OVCAR-4 ovarian = system: OVCAR-4 ovarian
# OVCAR-5 ovarian = system: OVCAR-5 ovarian
# OVCAR-8 ovarian = system: OVCAR-8 ovarian
# PC-3 prostate = system: PC-3 prostate
# RPMI-8226 leukemia = system: RPMI-8226 leukemia
# RXF 393 renal = system: RXF 393 renal
# SF-268 CNS = system: SF-268 CNS
# SF-295 CNS = system: SF-295 CNS
# SF-539 CNS = system: SF-539 CNS
# SK-MEL-2 melanoma = system: SK-MEL-2 melanoma
# SK-MEL-28 melanoma = system: SK-MEL-28 melanoma
# SK-MEL-5 melanoma = system: SK-MEL-5 melanoma
# SK-OV-3 ovarian = system: SK-OV-3 ovarian
# SN12C renal = system: SN12C renal
# SNB-19 CNS = system: SNB-19 CNS
# SNB-75 CNS = system: SNB-75 CNS
# SNB-78 CNS = system: SNB-78 CNS
# SR leukemia = system: SR leukemia
# SW-620 colon = system: SW-620 colon
# T-47D breast = system: T-47D breast
# TK-10 renal = system: TK-10 renal
# U251 CNS = system: U251 CNS
# UACC-257 melanoma = system: UACC-257 melanoma
# UACC-62 melanoma = system: UACC-62 melanoma
# UO-31 renal = system: UO-31 renal
# XF 498 CNS = system: XF 498 CNS
# KM20L2 colon = system: KM20L2 colon
compound,measurement,setting,value
C=C(C)[C@H]1Cc2c(ccc3c2O[C@@H]2COc4cc(OC)c(OC)cc4[C@@H]2C3=O)O1,TGI,786-0 renal,> 86.2 µM
same,TGI,A498 renal,63.3 µM
same,TGI,A549 NSCLC,> 100 µM
same,TGI,ACHN renal,87 µM
same,TGI,BT-549 breast,9.23 µM
same,TGI,CAKI-1 renal,63.8 µM
same,TGI,CCRF-CEM leukemia,71.1 µM
same,TGI,COLO 205 colon,0.539 µM
same,TGI,DLD-1 colon,> 100 µM
same,TGI,DMS 114 small cell lung,0.145 µM
same,TGI,DMS 273 small cell lung,18.3 µM
same,TGI,DU-145 prostate,38.9 µM
same,TGI,EKVX NSCLC,> 88.4 µM
same,TGI,HCC-2998 colon,8.12 µM
same,TGI,HCT-116 colon,23.5 µM
same,TGI,HCT-15 colon,40.4 µM
same,TGI,HL-60(TB) leukemia,0.381 µM
same,TGI,HOP-18 NSCLC,> 89.7 µM
same,TGI,HOP-62 NSCLC,40.5 µM
same,TGI,HOP-92 NSCLC,18.1 µM
same,TGI,HS 578T breast,0.488 µM
same,TGI,HT29 colon,4.09 µM
same,TGI,IGROV1 ovarian,> 100 µM
same,TGI,K-562 leukemia,> 72.1 µM
same,TGI,KM12 colon,14.3 µM
same,TGI,LOX IMVI melanoma,8.04 µM
same,TGI,LXFL 529 NSCLC,7.87 µM
same,TGI,M14 melanoma,24.7 µM
same,TGI,M19-MEL melanoma,> 73 µM
same,TGI,MALME-3M melanoma,48 µM
same,TGI,MCF7 breast,> 84.2 µM
same,TGI,MDA-MB-231 breast,44.7 µM
same,TGI,MDA-MB-435,0.0642 µM
same,TGI,MOLT-4 leukemia,45.2 µM
same,TGI,NCI-H226 lung,31.3 µM
same,TGI,NCI-H23 lung,14.1 µM
same,TGI,NCI-H460 lung,15.8 µM
same,TGI,NCI-H522 lung,0.404 µM
same,TGI,OVCAR-3 ovarian,3.05 µM
same,TGI,OVCAR-4 ovarian,68.5 µM
same,TGI,OVCAR-5 ovarian,> 100 µM
same,TGI,OVCAR-8 ovarian,10.1 µM
same,TGI,PC-3 prostate,47.5 µM
same,TGI,RPMI-8226 leukemia,8.84 µM
same,TGI,RXF 393 renal,6.41 µM
same,TGI,SF-268 CNS,28.2 µM
same,TGI,SF-295 CNS,38 µM
same,TGI,SF-539 CNS,3.36 µM
same,TGI,SK-MEL-2 melanoma,25.3 µM
same,TGI,SK-MEL-28 melanoma,81.4 µM
same,TGI,SK-MEL-5 melanoma,3.04 µM
same,TGI,SK-OV-3 ovarian,48.8 µM
same,TGI,SN12C renal,67.5 µM
same,TGI,SNB-19 CNS,> 100 µM
same,TGI,SNB-75 CNS,60.5 µM
same,TGI,SNB-78 CNS,45.3 µM
same,TGI,SR leukemia,22.2 µM
same,TGI,SW-620 colon,82.8 µM
same,TGI,T-47D breast,> 97.1 µM
same,TGI,TK-10 renal,54.5 µM
same,TGI,U251 CNS,30.9 µM
same,TGI,UACC-257 melanoma,36.7 µM
same,TGI,UACC-62 melanoma,44.7 µM
same,TGI,UO-31 renal,58.8 µM
same,TGI,XF 498 CNS,0.302 µM
COc1ccc2c3c([nH]c2c1[N+](=O)[O-])C(C)N(C)CC3 (stereo unspecified),TGI,786-0 renal,> 100 µM
same,TGI,A498 renal,> 100 µM
same,TGI,A549 NSCLC,> 100 µM
same,TGI,ACHN renal,> 100 µM
same,TGI,CAKI-1 renal,> 100 µM
same,TGI,CCRF-CEM leukemia,95.2 µM
same,TGI,COLO 205 colon,> 100 µM
same,TGI,DLD-1 colon,> 100 µM
same,TGI,DMS 114 small cell lung,> 100 µM
same,TGI,DMS 273 small cell lung,> 100 µM
same,TGI,EKVX NSCLC,> 100 µM
same,TGI,HCC-2998 colon,> 100 µM
same,TGI,HCT-116 colon,> 100 µM
same,TGI,HCT-15 colon,> 100 µM
same,TGI,HL-60(TB) leukemia,> 100 µM
same,TGI,HOP-18 NSCLC,84.9 µM
same,TGI,HOP-62 NSCLC,> 100 µM
same,TGI,HOP-92 NSCLC,> 100 µM
same,TGI,HT29 colon,42.6 µM
same,TGI,IGROV1 ovarian,> 100 µM
same,TGI,K-562 leukemia,40.1 µM
same,TGI,KM12 colon,> 100 µM
same,TGI,KM20L2 colon,> 100 µM
same,TGI,LXFL 529 NSCLC,> 100 µM
same,TGI,M14 melanoma,> 100 µM
same,TGI,M19-MEL melanoma,> 100 µM
same,TGI,MALME-3M melanoma,> 100 µM
same,TGI,MOLT-4 leukemia,> 100 µM
same,TGI,NCI-H226 lung,> 100 µM
same,TGI,NCI-H23 lung,> 100 µM
same,TGI,NCI-H460 lung,> 100 µM
same,TGI,NCI-H522 lung,> 100 µM
same,TGI,OVCAR-3 ovarian,> 100 µM
same,TGI,OVCAR-4 ovarian,> 100 µM
same,TGI,OVCAR-5 ovarian,> 100 µM
same,TGI,OVCAR-8 ovarian,> 100 µM
same,TGI,RPMI-8226 leukemia,> 100 µM
same,TGI,SF-295 CNS,> 100 µM
same,TGI,SF-539 CNS,> 100 µM
same,TGI,SK-MEL-2 melanoma,> 100 µM
same,TGI,SK-MEL-28 melanoma,> 100 µM
same,TGI,SK-MEL-5 melanoma,> 100 µM
same,TGI,SK-OV-3 ovarian,> 100 µM
same,TGI,SN12C renal,> 100 µM
same,TGI,SNB-19 CNS,> 100 µM
same,TGI,SNB-75 CNS,> 100 µM
same,TGI,SNB-78 CNS,> 100 µM
same,TGI,SW-620 colon,> 100 µM
same,TGI,TK-10 renal,> 100 µM
same,TGI,U251 CNS,> 100 µM
same,TGI,UACC-257 melanoma,> 100 µM
same,TGI,UACC-62 melanoma,> 100 µM
same,TGI,UO-31 renal,> 100 µM
same,TGI,XF 498 CNS,> 100 µM
CC1=[N+]([O-])c2ccccc2C(=O)C1=O,TGI,786-0 renal,> 100 µM
same,TGI,A498 renal,> 100 µM
same,TGI,A549 NSCLC,> 100 µM
same,TGI,ACHN renal,> 100 µM
same,TGI,CAKI-1 renal,> 100 µM
same,TGI,CCRF-CEM leukemia,74.2 µM
same,TGI,COLO 205 colon,> 100 µM
same,TGI,DLD-1 colon,> 100 µM
same,TGI,DMS 114 small cell lung,> 100 µM
same,TGI,DMS 273 small cell lung,> 100 µM
same,TGI,EKVX NSCLC,> 100 µM
same,TGI,HCC-2998 colon,> 100 µM
same,TGI,HCT-116 colon,> 100 µM
same,TGI,HCT-15 colon,> 100 µM
same,TGI,HL-60(TB) leukemia,> 100 µM
same,TGI,HOP-18 NSCLC,> 100 µM
same,TGI,HOP-62 NSCLC,> 100 µM
same,TGI,HOP-92 NSCLC,> 100 µM
same,TGI,HT29 colon,> 100 µM
same,TGI,IGROV1 ovarian,> 100 µM
same,TGI,K-562 leukemia,> 100 µM
same,TGI,KM12 colon,> 100 µM
same,TGI,KM20L2 colon,> 100 µM
same,TGI,LOX IMVI melanoma,> 100 µM
same,TGI,LXFL 529 NSCLC,> 100 µM
same,TGI,M14 melanoma,> 100 µM
same,TGI,M19-MEL melanoma,> 100 µM
same,TGI,MALME-3M melanoma,> 100 µM
same,TGI,MOLT-4 leukemia,> 100 µM
same,TGI,NCI-H226 lung,> 100 µM
same,TGI,NCI-H23 lung,> 100 µM
same,TGI,NCI-H460 lung,> 100 µM
same,TGI,NCI-H522 lung,71.4 µM
same,TGI,OVCAR-3 ovarian,> 100 µM
same,TGI,OVCAR-4 ovarian,> 100 µM
same,TGI,OVCAR-5 ovarian,> 100 µM
same,TGI,OVCAR-8 ovarian,> 100 µM
same,TGI,RPMI-8226 leukemia,> 100 µM
same,TGI,RXF 393 renal,> 100 µM
same,TGI,SF-268 CNS,> 100 µM
same,TGI,SF-295 CNS,> 100 µM
same,TGI,SF-539 CNS,> 100 µM
same,TGI,SK-MEL-2 melanoma,> 100 µM
same,TGI,SK-MEL-28 melanoma,> 100 µM
same,TGI,SK-MEL-5 melanoma,> 100 µM
same,TGI,SK-OV-3 ovarian,> 100 µM
same,TGI,SN12C renal,> 100 µM
same,TGI,SNB-19 CNS,> 100 µM
same,TGI,SNB-75 CNS,> 100 µM
same,TGI,SNB-78 CNS,> 100 µM
same,TGI,SW-620 colon,> 100 µM
same,TGI,TK-10 renal,> 100 µM
same,TGI,U251 CNS,> 100 µM
same,TGI,UACC-257 melanoma,> 100 µM
same,TGI,UACC-62 melanoma,> 100 µM
same,TGI,UO-31 renal,> 100 µM
same,TGI,XF 498 CNS,> 100 µM
